Results reported in patent EP2147919A1, “Heterocyclic substituted amides, method for their manufacture and their use as herbicides” (Bayer CropScience Aktiengesellschaft, priority 2008, dated 2010).

Tests used:
Schadpflanzen [1] = assay: Herbicidal action pre-emergence, summary over the weed spectrum; format: in vivo; settings: Vorauflaufverfahren, Aufwandmenge von 1.28 kg und weniger Aktivsubstanz pro Hektar
From the text: (§1) Samen von mono- bzw. dikotylen Unkraut- bzw. Kulturpflanzen werden in Holzfasertöpfen in sandiger Lehmerde ausgelegt und mit Erde abgedeckt. Die in Form von benetzbaren Pulvern (WP) oder als Emulsionskonzentrate (EC) formulierten erfindungsgemäßen Verbindungen werden dann als wäßrige Suspension bzw. Emulsion mit einer Wasseraufwandmenge von umgerechnet 600 bis 800 l/ha unter Zusatz von 0,2% Netzmittel auf die Oberfläche der Abdeckerde appliziert.
(§2) Nach der Behandlung werden die Töpfe im Gewächshaus aufgestellt und unter guten Wachstumsbedingungen für die Testpflanzen gehalten. Die visuelle Bonitur der Schäden an den Versuchspflanzen erfolgt nach einer Versuchszeit von 3 Wochen im Vergleich zu unbehandelten Kontrollen (herbizide Wirkung in Prozent (%): 100% Wirkung = Pflanzen sind abgestorben, 0 % Wirkung = wie Kontrollpflanzen).

STEME [2] = assay: Herbicidal action pre-emergence (greenhouse pot test, visual rating); format: in vivo, Stellaria media; settings: Vorauflauf, 1280 g/ha, visual rating after 3 weeks vs untreated controls
From the text: as §1, §2

VERPE [3] = assay: as above; format: in vivo, Veronica persica; settings: Vorauflauf, 1280 g/ha, visual rating after 3 weeks vs untreated controls
From the text: as §1, §2

ECHCG = assay: as above; format: in vivo, Echinochloa crus-galli; settings: Vorauflauf, 1280 g/ha, visual rating after 3 weeks vs untreated controls
From the text: as §1, §2

ABUTH [4] = assay: as above; format: in vivo, Abutilon theophrasti; settings: Vorauflauf, 1280 g/ha, visual rating after 3 weeks vs untreated controls
From the text: as §1, §2

SETVI = assay: as above; format: in vivo, Setaria viridis; settings: Vorauflauf, 1280 g/ha, visual rating after 3 weeks vs untreated controls
From the text: as §1, §2

VIOTR [5] = assay: as above; format: in vivo, Viola tricolor; settings: Vorauflauf, 1280 g/ha, visual rating after 3 weeks vs untreated controls
From the text: as §1, §2

MATIN [6] = assay: as above; format: in vivo, Matricaria inodora; settings: Vorauflauf, 1280 g/ha, visual rating after 3 weeks vs untreated controls
From the text: as §1, §2

ALOMY = assay: as above; format: in vivo, Alopecurus myosuroides; settings: Vorauflauf, 1280 g/ha, visual rating after 3 weeks vs untreated controls
From the text: as §1, §2

LOLMU = assay: as above; format: in vivo, Lolium multiflorum; settings: Vorauflauf, 1280 g/ha, visual rating after 3 weeks vs untreated controls
From the text: as §1, §2

POLCO = assay: as above; format: in vivo, Polygonum convolvolus; settings: Vorauflauf, 1280 g/ha, visual rating after 3 weeks vs untreated controls
From the text: as §1, §2

AMARE [7] = assay: as above; format: in vivo, Amaranthus retroflexus; settings: Vorauflauf, 1280 g/ha, visual rating after 3 weeks vs untreated controls
From the text: as §1, §2

ABUTH [8] = assay: Herbicidal action post-emergence (greenhouse pot test, visual rating); format: in vivo, Abutilon theophrasti; settings: Nachauflauf, 1280 g/ha, visual rating after ca. 3 weeks vs untreated controls
From the text: (§3) Samen von mono- bzw. dikotylen Unkraut- bzw. Kulturpflanzen werden in Holzfasertöpfen in sandigem Lehmboden ausgelegt, mit Erde abgedeckt und im Gewächshaus unter guten Wachstumsbedingungen angezogen. 2 bis 3 Wochen nach der Aussaat werden die Versuchspflanzen im Einblattstadium behandelt. Die in Form von benetzbaren Pulvern (WP) oder als Emulsionskonzentrate (EC) formulierten erfindungsgemäßen Verbindungen werden dann als wäßrige Suspension bzw. Emulsion mit einer Wasseraufwandmenge von umgerechnet 600 bis 800 l/ha unter Zusatz von 0,2% Netzmittel auf die grünen Pflanzenteile gesprüht. Nach ca. 3 Wochen Standzeit der Versuchspflanzen im Gewächshaus unter optimalen Wachstumsbedingungen wird die Wirkung der Präparate visuell im Vergleich zu unbehandelten Kontrollen bonitiert (herbizide Wirkung in Prozent (%): 100% Wirkung = Pflanzen sind abgestorben, 0 % Wirkung = wie Kontrollpflanzen).

MATIN [9] = assay: as above; format: in vivo, Matricaria inodora; settings: Nachauflauf, 1280 g/ha, visual rating after ca. 3 weeks vs untreated controls
From the text: as §3

STEME [10] = assay: as above; format: in vivo, Stellaria media; settings: Nachauflauf, 1280 g/ha, visual rating after ca. 3 weeks vs untreated controls
From the text: as §3

AMARE [11] = assay: as above; format: in vivo, Amaranthus retroflexus; settings: Nachauflauf, 1280 g/ha, visual rating after ca. 3 weeks vs untreated controls
From the text: as §3

Log P = format: physicochemical
PHBPU = assay: Herbicidal action post-emergence (greenhouse pot test, visual rating); format: in vivo, Pharbitis purpurea; settings: Nachauflauf, 1280 g/ha, visual rating after ca. 3 weeks vs untreated controls
From the text: as §3

VIOTR [12] = assay: as above; format: in vivo, Viola tricolor; settings: Nachauflauf, 1280 g/ha, visual rating after ca. 3 weeks vs untreated controls
From the text: as §3

VERPE [13] = assay: as above; format: in vivo, Veronica persica; settings: Nachauflauf, 1280 g/ha, visual rating after ca. 3 weeks vs untreated controls
From the text: as §3

Schadpflanzen [14] = assay: Herbicidal action post-emergence, summary over the weed spectrum; format: in vivo; settings: Nachauflaufverfahren, Aufwandmenge von 1.28 kg und weniger Aktivsubstanz pro Hektar
From the text: as §3

AVEFA = assay: Herbicidal action pre-emergence (greenhouse pot test, visual rating); format: in vivo, Avena fatua; settings: Vorauflauf, 1280 g/ha, visual rating after 3 weeks vs untreated controls
From the text: as §1, §2

Row | SMILES | herbizide Wirkung STEME (STEME [2]) [%] | herbizide Wirkung VERPE (VERPE [3]) [%] | herbizide Wirkung ABUTH (ABUTH [4]) [%] | herbizide Wirkung SETVI (SETVI) [%] | herbizide Wirkung VIOTR (VIOTR [5]) [%] | herbizide Wirkung MATIN (MATIN [6]) [%] | herbizide Wirkung ALOMY (ALOMY) [%] | herbizide Wirkung POLCO (POLCO) [%] | herbizide Wirkung AMARE (AMARE [7]) [%] | herbizide Wirkung ABUTH (ABUTH [8]) [%] | herbizide Wirkung MATIN (MATIN [9]) [%] | herbizide Wirkung STEME (STEME [10]) [%] | herbizide Wirkung AMARE (AMARE [11]) [%] | herbizide Wirkung VIOTR (VIOTR [12]) [%] | herbizide Wirkung VERPE (VERPE [13]) [%] | other results
1 | Cc1cc(OC(C)C)c(C(=O)NC(c2ccc(Cl)cc2)c2ccon2)c(Cl)n1 (racemic) [Beispiel 152, 2-Chlor-N-[(4-chlorphenyl)(isoxazol-3-yl)methyl]-4-isopropoxy-6-methylnicotinamid] | 90 | 100 | 100 | 100 | 100 | 100 | 80 | 100 | 100 | – | – | – | – | – | – | herbizide Wirkung gegen Schadpflanzen (Schadpflanzen [1]): sehr gute herbizide Wirkung; herbizide Wirkung ECHCG (ECHCG): 90%; herbizide Wirkung LOLMU (LOLMU): 90%
2 | Cc1cc(OC(C)C)c(C(=O)NC(c2ccc(F)c(F)c2)c2ccon2)c(Cl)n1 (racemic) [Beispiel 174, 2-Chlor-N-[(3,4-difluorphenyl)(isoxazol-3-yl)methyl]-4-isopropoxy-6-methylnicotinamid] | 100 | 100 | 100 | – | – | 80 | 60 | – | 100 | 100 | 90 | 100 | 100 | 80 | 100 | logP (Log P): 2.26; herbizide Wirkung PHBPU (PHBPU): 80%
3 | CCCOc1cc(C)nc(Cl)c1C(=O)NC(c1ccon1)c1ccc(OC)cc1F (stereo not shown) [Beispiel 2, 2-Chlor-N-[(2-fluor-4-methoxyphenyl)(isoxazol-3-yl)methyl]-6-methyl-4-n-propoxynicotinamid] | – | – | – | – | – | – | – | – | – | – | – | – | – | – | – | herbizide Wirkung gegen Schadpflanzen (Schadpflanzen [14]): sehr gute herbizide Wirkung
4 | CCCOc1cc(C)nc(Br)c1C(=O)NC(c1ccon1)c1ccc(Cl)cc1Cl (stereo not shown) [Beispiel 160] | 100 | 100 | 100 | 90 | 100 | 100 | – | 100 | 100 | – | – | – | – | – | – | –
5 | CCCOc1cc(C)nc(Br)c1C(=O)NC(c1ccc(F)c(F)c1)c1ccon1 (stereo not shown) [Beispiel 161] | 100 | 100 | 100 | 100 | 100 | 100 | 90 | 100 | 100 | – | – | – | – | – | – | herbizide Wirkung AVEFA (AVEFA): 80%; herbizide Wirkung gegen Schadpflanzen (Schadpflanzen [1]): sehr gute herbizide Wirkung; herbizide Wirkung ECHCG (ECHCG): 80%; herbizide Wirkung LOLMU (LOLMU): 90%
6 | CCCOc1cc(C)nc(Br)c1C(=O)NC(c1cccc(Cl)c1)c1ccon1 (stereo not shown) [Beispiel 162] | 100 | 100 | 100 | 80 | 100 | 100 | 90 | 100 | 100 | – | – | – | – | – | – | herbizide Wirkung gegen Schadpflanzen (Schadpflanzen [14]): sehr gute herbizide Wirkung; herbizide Wirkung gegen Schadpflanzen (Schadpflanzen [1]): sehr gute herbizide Wirkung; herbizide Wirkung ECHCG (ECHCG): 80%; herbizide Wirkung LOLMU (LOLMU): 80%
7 | Cc1cc(Cl)c(C(=O)NC(c2ccc(F)c(F)c2)c2ccon2)c(OC(C)C)n1 (stereo not shown) [Beispiel 164] | 90 | 100 | – | – | 100 | – | – | 100 | 100 | 90 | – | – | 100 | 80 | 80 | herbizide Wirkung PHBPU (PHBPU): 80%
8 | COc1ccc(C(NC(=O)c2ccc(C)nc2)c2ccon2)c(F)c1 (stereo not shown) [Beispiel 212] | – | – | – | – | – | – | – | – | – | 80 | – | 100 | 80 | – | 80 | –
9 | COc1ccc(C(NC(=O)c2c(C)nn(C)c2Cl)c2ccon2)c(F)c1 (stereo not shown) [Beispiel 261] | 100 | 100 | – | 90 | – | 100 | – | – | 100 | 80 | 100 | 100 | 90 | 100 | 100 | herbizide Wirkung PHBPU (PHBPU): 80%
10 | Cc1nn(C)cc1C(=O)NC(c1ccc(Cl)cc1)c1ccon1 (stereo not shown) [Beispiel 265] | 100 | 100 | 90 | – | 100 | 100 | – | – | 100 | 100 | 80 | 100 | 100 | 100 | 100 | –
11 | Cc1cc(C(=O)NC(c2ccc(Cl)cc2)c2ccon2)cs1 (stereo not shown) [Beispiel 295] | – | – | – | – | – | – | – | – | – | 80 | 80 | 100 | – | 90 | – | –
